Measured values from paper PMC11514586, “Development of Novel ROCK Inhibitors via 3D-QSAR and Molecular Docking Studies: A Framework for Multi-Target Drug Design” (Pharmaceutics, 2024).
pIC50: −log10 of the molar value.

Assays:
Assay type in all cases: biochemical
ROCK2 [1] = target: T1, ROCK2 (Homo sapiens, UniProt O75116); assay: radiometric […]-ATP kinase assay, single concentration […], percent inhibition
ROCK1 = ROCK1 (Homo sapiens, UniProt Q13464); assay: radiometric […]-ATP P81 filter binding kinase assay, 10-dose IC50 ([…] ATP)
ROCK2 [2] = target: T1, ROCK2; assay: as above

T1 sequence (O75116 whole entry): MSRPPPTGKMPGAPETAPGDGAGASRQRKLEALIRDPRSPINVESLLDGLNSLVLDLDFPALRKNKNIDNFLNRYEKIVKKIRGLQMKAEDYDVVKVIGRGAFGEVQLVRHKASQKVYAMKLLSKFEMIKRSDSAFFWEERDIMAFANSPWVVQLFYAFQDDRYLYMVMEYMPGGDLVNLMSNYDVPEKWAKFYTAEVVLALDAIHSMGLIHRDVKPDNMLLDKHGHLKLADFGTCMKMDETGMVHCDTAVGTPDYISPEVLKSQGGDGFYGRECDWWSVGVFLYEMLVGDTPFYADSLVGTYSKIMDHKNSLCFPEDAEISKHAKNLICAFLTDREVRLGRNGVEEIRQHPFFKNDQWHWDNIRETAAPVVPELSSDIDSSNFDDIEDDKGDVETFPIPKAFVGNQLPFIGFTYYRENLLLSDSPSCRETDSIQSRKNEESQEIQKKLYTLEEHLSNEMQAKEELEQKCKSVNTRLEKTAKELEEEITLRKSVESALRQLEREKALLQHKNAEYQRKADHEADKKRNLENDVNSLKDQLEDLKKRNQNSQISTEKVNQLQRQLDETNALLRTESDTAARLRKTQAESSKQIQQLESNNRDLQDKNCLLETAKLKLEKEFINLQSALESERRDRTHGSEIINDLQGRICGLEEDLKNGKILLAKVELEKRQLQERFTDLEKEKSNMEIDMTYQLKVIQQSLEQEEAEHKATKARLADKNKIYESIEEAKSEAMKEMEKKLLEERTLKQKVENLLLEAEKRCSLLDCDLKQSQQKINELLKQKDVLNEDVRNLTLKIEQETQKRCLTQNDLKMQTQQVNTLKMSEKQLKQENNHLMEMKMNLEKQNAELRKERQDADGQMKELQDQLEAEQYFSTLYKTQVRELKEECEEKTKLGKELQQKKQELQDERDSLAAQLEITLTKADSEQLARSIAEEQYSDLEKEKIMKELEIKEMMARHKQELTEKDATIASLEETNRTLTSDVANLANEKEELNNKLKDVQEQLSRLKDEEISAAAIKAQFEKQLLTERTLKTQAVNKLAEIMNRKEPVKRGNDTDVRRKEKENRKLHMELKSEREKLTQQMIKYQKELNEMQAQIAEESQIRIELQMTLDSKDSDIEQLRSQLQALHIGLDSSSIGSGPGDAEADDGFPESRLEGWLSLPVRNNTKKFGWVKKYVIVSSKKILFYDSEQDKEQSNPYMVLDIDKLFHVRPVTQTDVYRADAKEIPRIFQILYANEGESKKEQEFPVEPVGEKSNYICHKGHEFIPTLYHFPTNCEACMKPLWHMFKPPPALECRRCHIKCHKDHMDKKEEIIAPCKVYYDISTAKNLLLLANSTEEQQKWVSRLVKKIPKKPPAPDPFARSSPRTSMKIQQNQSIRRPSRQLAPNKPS
Chain of ROCK1 (Q13464 2-1354): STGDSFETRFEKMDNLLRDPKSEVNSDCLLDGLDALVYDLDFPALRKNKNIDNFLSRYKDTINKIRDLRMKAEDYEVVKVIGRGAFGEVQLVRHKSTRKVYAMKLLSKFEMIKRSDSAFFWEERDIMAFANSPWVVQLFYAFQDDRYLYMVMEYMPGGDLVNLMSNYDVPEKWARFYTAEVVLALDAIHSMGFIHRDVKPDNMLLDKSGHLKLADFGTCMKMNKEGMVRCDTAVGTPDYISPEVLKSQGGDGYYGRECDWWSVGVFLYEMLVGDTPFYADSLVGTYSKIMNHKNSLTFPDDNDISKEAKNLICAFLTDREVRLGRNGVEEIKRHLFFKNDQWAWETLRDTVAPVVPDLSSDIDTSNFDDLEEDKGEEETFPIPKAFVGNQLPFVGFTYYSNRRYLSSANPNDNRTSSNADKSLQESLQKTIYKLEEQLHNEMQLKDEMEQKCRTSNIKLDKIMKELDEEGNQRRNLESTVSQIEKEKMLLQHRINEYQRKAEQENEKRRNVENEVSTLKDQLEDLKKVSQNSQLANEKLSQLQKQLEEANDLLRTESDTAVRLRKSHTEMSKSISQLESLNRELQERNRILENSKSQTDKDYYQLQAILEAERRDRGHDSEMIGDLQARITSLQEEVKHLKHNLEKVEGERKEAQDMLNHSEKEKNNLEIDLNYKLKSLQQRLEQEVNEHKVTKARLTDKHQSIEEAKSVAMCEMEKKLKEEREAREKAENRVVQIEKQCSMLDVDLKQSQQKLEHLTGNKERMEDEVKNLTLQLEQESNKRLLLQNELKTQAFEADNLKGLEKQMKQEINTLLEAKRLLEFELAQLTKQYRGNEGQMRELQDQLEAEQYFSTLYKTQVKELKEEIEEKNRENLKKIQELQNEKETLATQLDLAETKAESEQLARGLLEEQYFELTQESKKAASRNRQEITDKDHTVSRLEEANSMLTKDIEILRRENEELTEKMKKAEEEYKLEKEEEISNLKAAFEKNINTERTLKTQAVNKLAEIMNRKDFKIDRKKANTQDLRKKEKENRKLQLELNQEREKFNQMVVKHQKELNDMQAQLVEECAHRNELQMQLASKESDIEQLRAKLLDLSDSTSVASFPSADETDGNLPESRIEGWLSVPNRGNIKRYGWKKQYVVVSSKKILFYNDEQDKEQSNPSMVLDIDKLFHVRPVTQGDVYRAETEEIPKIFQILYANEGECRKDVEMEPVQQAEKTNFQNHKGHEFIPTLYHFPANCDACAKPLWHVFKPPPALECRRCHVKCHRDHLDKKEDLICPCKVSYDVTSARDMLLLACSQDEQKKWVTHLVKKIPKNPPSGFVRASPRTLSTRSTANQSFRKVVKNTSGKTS

Row | Structure (SMILES) | inhibition at 10 µM (ROCK2 [1]) | pIC50 (ROCK1) | pIC50 (ROCK2 [2])
1 | COc1cc(CN2CCCN(C(=O)/C=C/c3ccncc3)CC2)ccc1O [C-22, 1-[4-(4-Hydroxy-3-methoxy-benzyl)-[1,4]diazepan-1-yl]-3-pyridin-4-yl-propenone] | 72.5% |  | 
2 | Cc1cc(F)ccc1CN1CCCN(S(=O)(=O)c2cccc3cnccc23)CC1 [C-19, 5-[4-(4-Fluoro-2-methyl-benzyl)-[1,4]diazepane-1sulfonyl]-isoquinoline] |  | 5.37 | 5.21
